Assays:
[1] = biological target: T1, recombinant zfHDAC6 (HDAC6 CD2) (Danio rerio, UniProt F8W4B7); test: Fluorescence polarization (FP) competition assay with FITC-M344; assay type: binding, Danio rerio (zebrafish); details: for IC50: 300 nM HDAC6 CD2, 50 nM FITC-M344, read-out: Fluorescence polarization IC50 against zfHDAC6
T1 construct: HDAC6 from Danio rerio (zebrafish; catalytic domain 2, S440-R798); His-SUMO (N, cleaved yes); made in house; host or cells: E. coli BL21 (DE3) RILP
T1 sequence (F8W4B7 440-798): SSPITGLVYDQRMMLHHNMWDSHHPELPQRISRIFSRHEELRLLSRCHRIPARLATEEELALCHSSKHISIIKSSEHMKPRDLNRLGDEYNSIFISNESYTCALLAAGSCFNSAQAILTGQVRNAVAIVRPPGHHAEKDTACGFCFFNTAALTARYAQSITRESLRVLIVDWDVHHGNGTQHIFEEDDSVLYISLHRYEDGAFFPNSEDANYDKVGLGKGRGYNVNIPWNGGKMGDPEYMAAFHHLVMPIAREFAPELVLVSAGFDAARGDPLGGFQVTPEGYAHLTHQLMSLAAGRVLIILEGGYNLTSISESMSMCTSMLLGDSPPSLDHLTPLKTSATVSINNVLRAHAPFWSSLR
Method: The FP assay was conducted in a Greiner Bio-one black 384-well, nonbinding microplate (Cat 781900) as previous described. These studies were performed in FP buffer (20 mM HEPES pH 8.0, 137 mM NaCl, 3 mM KCl, 1 mM TCEP, 5% DMSO). Binding experiments were performed in the presence of 50 nM FITC-M344 synthesized as described by Mazitschek et al. and titrated with 0–3 µM HDAC6. Competition assays were performed by titrating 0–100 µM inhibitor to 300 nM HDAC6 CD2 and preincubating the samples for 10 min prior to addition of 50 nM FITC-M344 in FP buffer. The assay mixture was incubated for an additional 10 min before FP measurement. Polarization measurements were collected using Infinite M1000-Tecan (ex/em = 470 nm/530 nm) and data were plotted and fitted using Prism GraphPad 6 built-in function, log(inhibitor) vs. response—variable slope (four parameters).

HDAC6 = HDAC6 (Homo sapiens, UniProt Q9UBN7); test: Intracellular target engagement residence time assay (NanoBRET) in HeLa cells; assay type: cell-based; details: HeLa cells transiently expressing HDAC6-NanoLuc full-length fusion protein
[2] = Plasma stability evaluation; assay type: in vitro ADME; details: read-out: T1/2 in plasma
[3] = In vivo PK study in CD-1 male mice (plasma); parameters: species or system CD-1 mice
Method: (§1) In vivo mouse studies were performed at Pharmaron in CD-1 male mice in triplicate. The test compounds were formulated within a 4 mg/mL solution (10% DMA, 65% PEG400, 25% saline). CD-1 mice were administered the test compound (50 mg/kg, I.P) once, and blood samples were obtained from each mouse at 0.25, 0.5, 1, 2, 4, 8, and 24 h post-dose. The mice had free access to food and water, were inspected for clinical signs and were weighted once prior to dosing. The working solutions of 5 μL at different concentrations (2, 4, 10, 20, 100, 200, 1000, 2000 ng/mL) were added to CD-1 mouse plasma (10 μL) to generate calibration standards of 1, 2, 5, 10, 50, 100, 500, and 1000 ng/mL. Four quality control (QC) samples at 2, 5, 50, and 800 ng/mL for plasma were prepared independently of calibration curves. Standards, QC samples, and unknown samples (total volume 15 µL) were added to acetonitrile (200 μL) containing IS (2 ng/mL Verapamil, and 50 ng/mL Dexamethasone) for precipitation of protein. Samples were vortexed and centrifuged (4 °C, 3900 rpm, 15 min), and the supernatant was diluted 3× with ultra-pure water. Diluted supernatant was injected into the LC-MS/MS system for quantitative analysis.

[4] = In vivo brain PK analysis in male CD-1 mice; details: IP, 50 mg/kg, n = 3
Method: as §1

DERL-2 cells [5] = test: Cytotoxicity assay (Cell Titer-Blue, 72 h); assay type: cell-based; details: Homo sapiens, one representative of three experiments
Method: (§2) KHYG-1, SNK6, MTA, YT, DERL-2, DERL-7, Mac2a, SU-DHL-1, Myla, Hut78, SeAx, HH, MOTN-1, KOPT-K1, Jurkat, and Loucy cells were plated in 96-well flat-bottom sterile culture plates with low-evaporation lids (Costar #3997). The inhibitors and a vehicle control (0.5% DMSO) were added to the cells following 24 h. After 72 h, Cell Titer-Blue® (Promega #G808A) was added to each well (20 μL), and the fluorescence was measured at 560/590 nm using a Cytation S63 spectrophotometer (BioTek) or on the GloMax® Discover Microplate Reader (Promega, Madison, WI, USA). IC50 values were determined using non-linear regression analysis with GraphPad Prism 6.0 (GraphPad Software Inc., San Diego, CA, USA).

DERL-7 cells = test: Cytotoxicity assay (Cell Titer-Blue, 72 h); assay type: cell-based; details: Homo sapiens, DERL7, one representative of three experiments
Method: as §2

HH cells = test: Cytotoxicity assay (Cell Titer-Blue, 72 h); assay type: cell-based; details: Homo sapiens, one representative of three experiments
Method: as §2

Hut78 cells = test: Cytotoxicity assay (Cell Titer-Blue, 72 h); assay type: cell-based; details: Homo sapiens, one representative of three experiments
Method: as §2

Jurkat cells = test: Cytotoxicity assay (Cell Titer-Blue, 72 h); assay type: cell-based; details: Homo sapiens, one representative of three experiments
Method: as §2

KHYG-1 cells = test: Cytotoxicity assay (Cell Titer-Blue, 72 h); assay type: cell-based; details: Homo sapiens, one representative of three experiments, ANKL to T-ALL panel
Method: as §2

KOPT-K1 cells = test: Cytotoxicity assay (Cell Titer-Blue, 72 h); assay type: cell-based; details: Homo sapiens, KOPTK1, one representative of three experiments
Method: as §2

Loucy cells = test: Cytotoxicity assay (Cell Titer-Blue, 72 h); assay type: cell-based; details: Homo sapiens, one representative of three experiments
Method: as §2

MOTN-1 cells = test: Cytotoxicity assay (Cell Titer-Blue, 72 h); assay type: cell-based; details: Homo sapiens, one representative of three experiments
Method: as §2

MTA cells = test: Cytotoxicity assay (Cell Titer-Blue, 72 h); assay type: cell-based; details: Homo sapiens, one representative of three experiments
Method: as §2

Mac2a cells = test: Cytotoxicity assay (Cell Titer-Blue, 72 h); assay type: cell-based; details: Homo sapiens, one representative of three experiments
Method: as §2

Myla cells = test: Cytotoxicity assay (Cell Titer-Blue, 72 h); assay type: cell-based; details: Homo sapiens, one representative of three experiments
Method: as §2

SNK6 cells = test: Cytotoxicity assay (Cell Titer-Blue, 72 h); assay type: cell-based; details: Homo sapiens, one representative of three experiments
Method: as §2

SU-DHL-1 cells = test: Cytotoxicity assay (Cell Titer-Blue, 72 h); assay type: cell-based; details: Homo sapiens, one representative of three experiments
Method: as §2

SeAx cells = test: Cytotoxicity assay (Cell Titer-Blue, 72 h); assay type: cell-based; details: Homo sapiens, one representative of three experiments
Method: as §2

YT cells = test: Cytotoxicity assay (Cell Titer-Blue, 72 h); assay type: cell-based; details: Homo sapiens, one representative of three experiments
Method: as §2

[6] = tested on: acetylation of α-tubulin and histone H3 in acute myeloid leukemia (MV4-11) cells; test: In cellulo target engagement by Western blotting; assay type: cell-based; details: 6 h treatment, Western blot
Method: (§3) Cells (MV4-11 AML, MM.1S multiple myeloma, or YT cells) were incubated with inhibitors prior to washes (2×) with cold phosphate-buffered saline (PBS) and cell lysis with radioimmunoprecipitation assay (RIPA) buffer (20 mM Tris pH 7.4, 150 mM NaCl, 0.5% deoxycholate, 1% Triton X-100, and 0.1% sodium dodecyl sulfate (SDS)). Total protein content was determined through a bicinchoninic acid (BCA) assay (ThermoFisher Scientific, Waltham, MA, USA). The cell lysate proteins were separated via a 4–20% polyacrylamide SDS gel and transferred to a PVDF membrane (Bio-Rad, Hercules, CA, USA). Non-specific binding of the antibody to the membrane was reduced by blocking the membranes with a 5% (w/v) solution of Bovine Serum Albumin powder in TBS-T. This was followed by incubation at 4 °C (overnight) with the following antibodies: acetylated α-tubulin mouse monoclonal (sc-23950, Santa Cruz, Santa Cruz, CA, USA), acetylated Histone H3 (Ac-Lys18, 07-354, Sigma), β-Actin mouse monoclonal (AC-15, sc-69879, Santa Cruz), and […] HSC70 (sc-7298, Santa Cruz). Following overnight incubation, horseradish peroxidase (HRP)-conjugated goat anti-mouse IgG secondary antibody (7076, Cell Signaling) or HRP-linked anti-rabbit IgG secondary antibody (7074, Cell Signaling) was applied to the membrane in a 1:5000 dilution for 1 h. The bands were visualized using clarity Western ECL substrate luminal/enhancer solution and peroxide solution. Western blotting analysis was carried out using Image lab software (Bio-Rad).

[7] = tested on: acetylation of α-tubulin and histone H3 in multiple myeloma (MM.1S) cells; test: In cellulo target engagement by Western blotting; assay type: cell-based; details: 6 h treatment, Western blot
Method: as §3

DERL-2 cells [8] = test: FACS apoptosis detection assay (annexin V/PI); assay type: cell-based, human; details: DERL-2, 18 h treatment
Method: DERL-2 cells were seeded, dosed with inhibitors, incubated for 18 h, and washed with ice cold 1× PBS. The resulting cell pellets were resuspended in 1× Binding Buffer (1 × 10^6 cell/mL) from the FITC Annexin V Apoptosis Detection Kit I (BD Pharmingen). Subsequently, the dyes Annexin V (5 μL) and Propidium Iodide (PI, 5 μL) were added to 2.5 × 10^5 cells (250 μL). The suspension was thoroughly mixed and incubated in the dark for 15 min. Following the addition of 250 μL of 1× binding buffer the cells were analyzed by flow cytometry within 1 h using Cytoflex S (Beckman Coulter, Brea, CA, USA).

[9] = mouse, plasma, male CD-1 mice, IP, 50 mg/kg, n = 3

O=C(CCCCCCNC(=O)c1cnc(N(c2ccccc2)c2ccccc2Cl)nc1)NO [Citarinostat, citarinostat]
IC50 [1]: 0.0902 µM | Binding affinity lower than NN-429 (FP) ([1]; FP IC50 vs NN-429): 3 fold

CC(C)N(Cc1ccc(C(=O)NO)cc1)S(=O)(=O)c1cc(F)c(F)c(F)c1F [NN-390]
Intracellular residence time in HDAC6 (HDAC6): 97 min

CC(C)N(Cc1ccc(C(=O)NO)cc1F)S(=O)(=O)c1cc(F)c(F)c(F)c1F [NN-429]
IC50 [1]: 0.0288 µM | half-life [2]: 1.55 h | in vivo t1/2 longer than that of KT-531 ([3]; CD-1 mice, KT-531 at a lower dose): > 3.5 fold | in vivo t1/2 longer than that of NN-390 ([3]; CD-1 mice, NN-390 at a lower dose): ~ 1.8 fold | AUC(0-inf) [3, 9]: 9920 ng·h/mL | AUC(0-t) [3, 9]: 9860 ng·h/mL | Cmax [3, 9]: 3190 ng/mL | half-life [3, 9]: 3.53 h | Levels in the brain [4]: no observable levels | IC50 (DERL-2 cells [5]): 2.32 µM | IC50 (DERL-7 cells): 2.21 µM | IC50 (HH cells): 2.95 µM | IC50 (Hut78 cells): 16.7 µM | IC50 (Jurkat cells): 5.46 µM | IC50 (KHYG-1 cells): 7.25 µM | IC50 (KOPT-K1 cells): 6.16 µM | IC50 (Loucy cells): 3.6 µM | IC50 (MOTN-1 cells): 2.75 µM | IC50 (MTA cells): 0.72 µM | IC50 (Mac2a cells): 15.1 µM | IC50 (Myla cells): > 50 µM | IC50 (SNK6 cells): 12 µM | IC50 (SU-DHL-1 cells): 4.72 µM | IC50 (SeAx cells): 12.4 µM | IC50 (YT cells): 1.29 µM | Target engagement (α-tubulin vs histone H3 acetylation) [6]: strong target engagement with minimal acetylation of off-target histone H3 | Concentration with visible off-target interaction (histone H3 acetylation) [7]: 5 µM | Lowest concentration with dose-dependent increase in acetylation of α-tubulin [7]: 0.1 µM | Cells undergoing early-stage apoptosis (annexin V+/PI−) (DERL-2 cells [8]; 0.1 μM): 15% | Cells undergoing early-stage apoptosis (annexin V+/PI−) (DERL-2 cells [8]; 5 μM): 56%

From publication PMC9692247 (Pharmaceuticals, 2022)
